Laboratory results published in article PMC9965539, “Adverse Toxic Effects of Tyrosine Kinase Inhibitors on Non-Target Zebrafish Liver (ZFL) Cells” (International Journal of Molecular Sciences, 2023).

Key:
[1] = MTS assay, viability of ZFL cells; format: cell-based, zebrafish; settings: zebrafish, ZFL cells (zebrafish liver cell line), ZFL cells, read-out: IC50 for TKIs Cytotoxicity (95% Confidence Interval)
Protocol: (§1) The viability of ZFL cells after 24, 48, and 72 h of exposure to TKIs was determined using the tetrazolium-based (MTS) assay (Cell Titer 96 AQueous Non-Radioactive Cell Proliferation Assay; Promega, Madison, WI, USA) as previously described by Novak et al.. Cells were seeded in 96-well microtiter plates (Corning Costar Corporation, New York, NY, USA) at a density of 7000 cells/well. […] Three independent experiments were performed, each with five replicates per treatment point. The statistical significance between the treated groups and the solvent control was determined by Student’s t-test using GraphPad Prism V6 (GraphPad Software, La Jolla, CA, USA). *** (p < 0.001)was considered statistically significant.

[2] = tested on: zebrafish liver cells (ZFL); experiment: MTS assay, viability of ZFL cells; format: cell-based; settings: for viability of the ZFL cells: 24, 48, 72 h, dose- and time-dependent, ERL and NIL up to their maximum solubility; for cytotoxic effects in ZFL cells (MTS): concentrations up to 60 µM, up to 72 h exposure
Protocol: as §1

[3] = tested on: zebrafish liver cells (ZFL); experiment: Propidium iodide live/dead staining by flow cytometry; format: cell-based; settings: for percentage of PI negative cells: 72 h exposure, low concentrations
Protocol: Benzo[a]pyrene (50 μM), an indirect-acting genotoxic agent which requires metabolic activation for its genotoxic effects, and etoposide (0.17 μM), a direct-acting genotoxic agent, were selected as positive controls. After 72 h, floating and adherent cells were collected, resuspended in ice-cold 1x PBS, and immediately analyzed. Propidium iodide (PI) at a final concentration of 1 μg/mL was added to the cells 5 min before the start of measurements using the MACSQuant Analyzer 10 flow cytometer (Miltenyi Biotech, Bergisch Gladbach, Germany). MASCQuantifiy software (Miltenyi Biotech, Bergisch Gladbach, Germany) was used to quantify PI negative and positive cells. The experiments were repeated three times independently. Statistical significance between the treated groups and control was determined by one-way ANOVA with post hoc multiple comparison Dunett’s test using GraphPad Prism V6 (GraphPad Software, La Jolla, CA, USA). * p < 0.05 was considered statistically significant.

[4] = tested on: zebrafish liver cells (ZFL); experiment: Cell cycle analysis with flow cytometry; format: cell-based; settings: 72 h; for effect on cell cycle progression: concentration-dependent, parallel decrease in S-phase fraction
Protocol: ZFL cells were seeded onto T25 culture plates at a density of 450,000 cells for 24 h. […] The positive control was etoposide (0.17 μM), which is known to arrest cells in the G2/M phase of the cell cycle. After 72 h, cells were trypsinized (0.25% trypsin-EDTA) and washed with 1x PBS before fixation in 4% paraformaldehyde (PFA). For flow cytometric analysis, fixed cells were washed in cold 1x PBS and stained with Hoechst 33258 dye (diluted in 0.1% Triton X-100 1:500) as described by Stampar et al.. Flow cytometric measurements were performed using a MACSQuant Analyzer 10 and the experiment was repeated three times independently. Each time, 20,000 single cells were recorded per experimental point. The data obtained were analyzed using FlowJo V10 software (Becton Dickinson, Franklin Lakes, NJ, USA). Statistical analysis for cell cycle was performed by the two-way ANOVA with Fisher’s LSD test using GraphPad Prism V6 (GraphPad Software, La Jolla, CA, USA). * p < 0.05, ** (p < 0.01), *** (p < 0.001) were considered statistically significant.

[5] = tested on: zebrafish liver cells (ZFL); experiment: Alkaline comet assay (DNA strand breaks); format: cell-based; settings: 24 h of exposure, non-cytotoxic concentrations
Protocol: The induction of DNA strand breaks after TKI exposure was assessed by the comet assay according to Møller et al., with minor modifications. Briefly, ZFL cells were seeded at a density of 100,000 cells/well onto 12-well cell culture plates (Corning Costar Corporation, New York, NY, USA) and incubated for 24 h to attach. […] B(a)P (50 μM) was used as a positive control. After treatment, ZFL cells were trypsinized, collected, and centrifuged. Thirty μL of the cell suspension was mixed with 70 μL of 1% LMP agarose and placed on fully frosted slides pre-coated with 80 μL of 1% NMP agarose. Cells were then lysed for 1 h at 4 °C (2.5 M NaCl, 100 mM EDTA, 10 mM Tris, 1% Triton X-100, pH 10). DNA was subsequently denatured in electrophoresis buffer (1 mM EDTA, 300 mM NaOH, pH 13) for 20 min at 4 °C and slides were electrophoresed at 25 V (at 1 V/cm) for 20 min. Finally, nuclei were stained with GelRed (Biotium, Fremont, CA, USA). Images of 50 randomly selected nuclei per experimental point were acquired with the Eclipse 800 fluorescence microscope (Nikon, Tokyo, Japan) at 400× magnification using image analysis software (Comet Assay IV, Instem, UK). The statistical significance between control and treated groups was determined by one-way analysis of variance (ANOVA, Kruskal–Wallis) and Dunn’s multiple comparison test. * p < 0.05 was considered statistically significant.

[6] = tested on: zebrafish liver cells (ZFL); experiment: Micronucleus detection by flow cytometry; format: cell-based; settings: 72 h; for MNi frequency: non-cytotoxic concentrations
Protocol: ZFL cells were seeded onto 24-well culture plates (Nunclon) at a density of 35,000 cells per well for 24 h. […] Etoposide (0.17 μM and 0.68 μM) was used as a positive control. After 72 h, cells were placed on ice for 20 min, and subsequently a 0.05 mg/mL EMA solution was added to each well. The cells were placed on ice for 30 min and exposed to light for photoactivation of the EMA fluorochrome. Afterwards, cells were washed and resuspended in lysis solution (0.584 mg/mL NaCl, 1 mg/mL sodium citrate, and 0.3 μL/mL Triton X-100) containing 0.2 μM SYTOX Green and 0.25 mg/mL RNAse A, and incubated for 1 h in the dark at 37 °C. After incubation, lysis solution (85.6 mg/mL sucrose and 15 mg/mL citric acid) containing 0.2 μM SYTOX Green was added to the wells of the plate and incubated for a further 30 min at room temperature in the dark. Cells were analyzed on the same day using MACSQuant Analyzer 10 flow cytometer. MASCQuantify Software 2.11. was used to analyze each sample, and the percentage of micronuclei was determined after the acquisition of a total of 20,000 gated nuclei events, excluding EMA-positive events. One-way ANOVA with post hoc multiple comparison Dunett’s test using GraphPad Prism V6 (GraphPad Software, Carlsbad, CA, USA) was carried out. * p < 0.05 and *** p < 0.0001 were considered statistically significant.

[7] = tested on: certain target cancer cells; set-up: method as in ref 56, 57 (DAS), 58, 59 (REG); settings: in vitro; 57 (DAS), 58, 59 (REG); cited from earlier work
[8] = tested on: human lymphocytes or Chinese hamster ovary cells in vitro and rat bone marrow; settings: ref 11 (REG), 69 (ERL), 59 (NIL); cited from earlier work
[9] = tested on: human lymphoblastoid TK6 cells; set-up: method as in PMID 25111698; settings: up to 4.4 μM, 24 h, without and with metabolic activation; cited from earlier work
[10] = tested on: H295R cells; set-up: method as in Silveira et al. 28; settings: 10 µM; ref Silveira et al. 28; cited from earlier work
[11] = tested on: HepG2 and HepaRG cells; set-up: method as in PMID 28659801; settings: 20 µM highest concentration tested; cited from earlier work
[12] = tested on: H520 and H1975 cells; set-up: method as in PMID 24447935; settings: highest concentration tested; cited from earlier work
[13] = tested on: HepG2 cells; settings: 24 h of exposure; cited from earlier work
[14] = tested on: Huh-7 cells; settings: 24 h; cited from earlier work
[15] = tested on: A549 cells; set-up: method as in Kryeziu et al. 65; settings: 20 µM, 6 h exposure; ref Kryeziu et al. 65; cited from earlier work
[16] = tested on: human ovarian cancer cells (SKOV-3 cells); set-up: method as in Mak et al. 66; settings: 10 µM, 72 h; ref Mak et al. 66; cited from earlier work
[17] = tested on: ovarian carcinoma A2780 cells; set-up: method as in PMID 28223694; settings: up to 10 μM, 24 h; cited from earlier work
[18] = tested on: Alium cepa; set-up: method as in doi:10.1508/cytologia.86.195; settings: dose-dependent; cited from earlier work

SMILES	viability of the ZFL cells [2]	percentage of PI negative cells [3]	concentration that induced G0/G1 cell cycle arrest with decrease in number of cells in S phase [4] [µM]	effect on cell cycle progression [4]	concentration with statistically significant increase in percentage of tail DNA [5] [nM]	MNi frequency [6]	mutagenicity/genotoxicity (chromosomal damage/genomic instability) [8]	cytotoxic effects in ZFL cells (MTS) [2]	other results
CNC(=O)c1cc(Oc2ccc(NC(=O)Nc3ccc(Cl)c(C(F)(F)F)c3)c(F)c2)ccn1 [REG, regorafenib]	reduced	did not significantly decrease	3	arrest of the cell cycle in the G0/G1 phase	≥ 800	did not significantly increase	not mutagenic/genotoxic	–	IC50 at 24 h ([1]; 24 h exposure): 5.64 µM; IC50 at 48 h ([1]; 48 h exposure): 4.54 µM; IC50 at 72 h ([1]; 72 h exposure): 3.59 µM; DNA damage assessed by comet assay [7]: induce DNA damage; MNi formation [9]: did not induce MNi formation
Cc1cn(-c2cc(NC(=O)c3ccc(C)c(Nc4nccc(-c5cccnc5)n4)c3)cc(C(F)(F)F)c2)cn1 [NIL, nilotinib]	did not affect cell viability	–	–	–	≥ 2000	did not significantly increase	–	no cytotoxic effects	decrease of the percentage of PI negative cells ([3]; highest concentration tested, 72 h): approximately 20%; decrease of survival [10]: 62.9%
C#Cc1cccc(Nc2ncnc3cc(OCCOC)c(OCCOC)cc23)c1 [ERL, erlotinib]	did not affect cell viability	did not significantly decrease	40	arrest of the cell cycle in the G0/G1 phase	–	did not significantly increase	not mutagenic/genotoxic	no cytotoxic effect	cytotoxicity [11]: only slight cytotoxicity; reduction in viability [12]: 20%; concentration inducing apoptosis [13]: 25 µM; concentration inducing cell cycle arrest [13]: 10 µM; concentration with cell cycle arrest [14]: 25 µM; DNA damage (alkaline comet assay) [15]: did not induce DNA damage; percentage of tail DNA [16]: increases the percentage of tail DNA; MNi formation [17]: did not induce MNi formation; mitotic index and cytological aberrations [18]: decreased the mitotic index and increased cytological aberrations
COc1cc([C@@H]2c3cc4c(cc3[C@@H](O[C@@H]3O[C@@H]5CO[C@@H](C)O[C@H]5[C@H](O)[C@H]3O)[C@H]3COC(=O)[C@H]23)OCO4)cc(OC)c1O [etoposide, Etoposide]	–	–	–	–	–	–	–	–	MNi in representative dot plot ([6]; 0.17 μM): increased amount of MNi
